Values after ≈ are worked out from the molar mass of the structure shown.

For this data set the following is noted: buffer; pH 7.4; 6.0 h; 150.0 µM.
In turn, `COc1ccccc1CNC(=O)CCCn1nc(C)c2c(C)n(-c3ccc(C)cc3)nc2c1=O` came in with a solubility (kinetic) of 2.29 µg/mL (≈ 4.98 µM).
Next, `COc1ccccc1N1CCN(CCN(C(=O)c2ccc(I)cc2)c2ccccn2)CC1`: 53.8 µg/mL (≈ 99.1 µM); `Cc1cccc(C(=O)N2CCc3cc(-c4nc(NC(=O)Cc5ccc6c(c5)OCO6)sc4C)ccc32)c1`: 4.07 µg/mL (≈ 7.96 µM).
In the case of `Nc1ccc(CNc2ccc([S+](=O)([O-])Nc3nccs3)cc2)c(O)c1` it was 45.7 µg/mL (≈ 121 µM).
Next, `COc1cccc(C(=O)Nc2nc(-c3nnn(-c4cccc(Cl)c4C)c3C)ns2)c1`: less than 1 µg/mL; `O=C(NCc1cccc(C(F)(F)F)c1)c1ccc(CN2CCCCC2)cc1`: 46.6 µg/mL (≈ 124 µM); `O=C1Nc2ccccc2/C1=C\c1cc(Br)c(O)c(Br)c1`: more than 58 µg/mL.
Compound `COCCCOc1ccnc(CS(=O)c2nc3ccccc3[n-]2)c1C` (stereo not drawn) registered a kinetic solubility of 19.2 µg/mL.
Regarding `COc1ccc(-n2nc(C3CCN(C(=O)Cc4ccc(F)cc4)CC3)[nH]c2=O)cc1`, the kinetic solubility was more than 61 µg/mL.
`Cc1ccc(S(=O)(=O)Nc2cnccc2C(=O)Nc2nc(-c3ccccc3F)cs2)cc1` gave a solubility (kinetic) of less than 1 µg/mL.
In the case of `CCOc1cc(-c2nccc3cc(OC)c(OC)cc23)cc(OCC)c1OCC` it was 13.8 µg/mL (≈ 34.6 µM); in that of `COCCNC(=O)[C@H]1C[C@H](Oc2ccccc2)CN1Cc1ccc2[nH]ccc2c1`, 17.1 µg/mL (≈ 43.5 µM); in that of `O=c1c2c([nH]c3ccc(Br)cc13)CCCC2`, 4.86 µg/mL (≈ 17.5 µM).
Next, `O=C(Nc1ccc(S(=O)(=O)Nc2nccs2)cc1)c1ccnc2ccccc12`: 2.55 µg/mL (≈ 6.2 µM); `CCOC(=O)C1CCN(C(=O)C2(NC(=O)Nc3ccccc3Cl)CCC2)CC1`: 43.2 µg/mL (≈ 106 µM).
As for `Cc1nc2ccc(Nc3nc(-c4ccncc4)nc4ccccc34)cc2s1`, the solubility (kinetic) was less than 1 µg/mL.
Compound `O=C(Nc1nnc(-c2ccc(Cl)cc2)o1)c1ccc(Cl)c(Cl)c1` yielded a kinetic solubility of less than 1 µg/mL.
Next, `COc1ccc(S(=O)(=O)N(CC(=O)Nc2ccc(C)cc2)c2ccc(C)cc2)cc1OC`: less than 1 µg/mL; `O=C(Cc1nc2ccc(Cl)cc2[nH]1)Nc1ccc(S(=O)(=O)Nc2nccs2)cc1`: 4.93 µg/mL (≈ 11 µM).
In the case of `Nc1ccc(-c2cccc3c(=O)cc(N4CCOCC4)oc23)cc1` it was more than 48 µg/mL; in that of `COc1ccc(-c2cc(C(F)(F)F)nc(SCCC(=O)Nc3cc(C)ccc3O)n2)cc1`, less than 1 µg/mL; in that of `CC(C)c1ccccc1-c1nc2c(c(NCc3ccc(-c4cccnc4)cc3)n1)CNC2`, 40.9 µg/mL (≈ 97 µM).
The compound `COc1ccc(C(=O)Nc2nc(-c3ccccc3)cs2)c(OC)c1` gave a kinetic solubility of less than 1 µg/mL.
The compound `c1ccc(-c2nnc3n2NC(c2ccc4c(c2)OCO4)S3)cc1` (stereo not drawn) gave a solubility (kinetic) of 1.56 µg/mL (≈ 4.82 µM).
Compound `CNC(=O)Cn1cc(-c2ccc3c(c2)C(F)CC32NC(=O)N(CC(=O)N(Cc3ccc(F)cc3)[C@@H](C)C(F)(F)F)C2=O)cn1` (stereo partly drawn) came in with a kinetic solubility of 22 µg/mL (≈ 35.5 µM).
Next, `CS(=O)(=O)c1ccccc1-c1csc(N2CCC(C(N)=O)CC2)n1`: more than 54 µg/mL; `Cc1ccnc(NC(=S)N2CCN(c3ccc(C(F)(F)F)cc3[N+](=O)[O-])CC2)c1`: 4.11 µg/mL (≈ 9.67 µM).
Consider `Cc1ccc2cccc(NC(=O)c3ccc(OC(C)C)cc3)c2n1`, for which the kinetic solubility was less than 1 µg/mL.
Next, `O=C(c1cc2ccccc2[nH]1)N1CCc2c(n(Cc3cccnc3)n(CCc3ccccc3)c2=O)C1`: more than 47 µg/mL; `c1ccc2c(Nc3ccon3)nc(-c3ccncc3)nc2c1`: less than 1 µg/mL; `Fc1ccc(Nc2nc(-c3ccncc3)ncc2-c2ccccc2)cc1F`: less than 1 µg/mL.
`CCOc1ccc(CCNC(=O)c2ccccc2)cc1OCC` displayed a kinetic solubility of 29.2 µg/mL (≈ 93.3 µM).
With `COc1ccc(-c2nc(Nc3ccc(F)c(F)c3)c3ccccc3n2)cc1`, the solubility (kinetic) was less than 1 µg/mL.
In the case of `Cc1ccc(O)c(-c2cc(-c3ccccc3C)[nH]n2)c1` it was less than 1 µg/mL.
In the case of `Cn1cc(Cl)c(C2N=C(Nc3nc4ccccc4o3)NC3=C2C(=O)CCC3)n1` (stereo not drawn) it was 36.4 µg/mL (≈ 91.7 µM); in that of `O=c1cc(CSc2ccc(Cl)cc2)nc(-c2ccccn2)[nH]1`, 1.18 µg/mL (≈ 3.58 µM).
In the case of `Cc1cc(N)c2cc(NC(=O)Nc3ccc4nc(C)cc(N)c4c3)ccc2n1.Cl.Cl` it was less than 1 µg/mL.
On to `CCCOC(c1cc2nccc(C(=O)O)c2[nH]1)c1ccccc1Cl` (stereo not drawn), for which the solubility (kinetic) was more than 51 µg/mL.
With `FC(F)(F)c1cccc(Nc2ccc(CNc3nc(-c4ccccc4C(F)(F)F)nc4ccccc34)cc2)c1`, the kinetic solubility is less than 1 µg/mL.
As for `COc1ccc(C2c3[nH]c4ccc(OC)cc4c3CCN2C(=O)Nc2ccccc2)cc1` (stereo not drawn), the solubility (kinetic) came to 1.06 µg/mL (≈ 2.48 µM).
`COc1nccc(-c2nc(Nc3ccc(F)c(F)c3)c3ccccc3n2)c1Cl` came in with a kinetic solubility of less than 1 µg/mL.
Compound `CC(C)(C)c1ccc(OCc2nn3c(-c4ccncc4)nnc3s2)cc1` showed a solubility (kinetic) of less than 1 µg/mL.
Next, `CC(C)c1ccccc1-c1ncc(F)c(NCC2CCN(c3cnccn3)C2)n1` (stereo not drawn): 32.1 µg/mL (≈ 81.7 µM); `Cc1ccc(-c2cc(C(=O)Nc3ccc(S(=O)(=O)N(C)Cc4nccs4)cc3)c3ccccc3n2)cc1C`: 3.73 µg/mL (≈ 6.88 µM).
Next, `Cc1ccc(S(=O)(=O)Nc2cnccc2C(=O)Nc2ccc(-n3cncn3)cc2)cc1`: more than 64 µg/mL; `COC(=O)c1ccc2c(C(=Nc3ccc(N(C)C(=O)CN4CCN(C)CC4)cc3)c3ccccc3)c(O)[nH]c2c1`: less than 1 µg/mL.
In turn, `COC(=O)c1ccnc(-c2cc(C(=O)NCCc3ccccc3)ccn2)c1` returned a solubility (kinetic) of 5.36 µg/mL (≈ 14.8 µM).
Next, `COc1c(Cl)cc2c([nH]c3cnccc32)c1NC(=O)c1cccnc1C`: 6.08 µg/mL (≈ 16.6 µM).
Next, `Cc1ccc(S(=O)(=O)Nc2cnccc2C(=O)Nc2ccccc2)cc1`: more than 54 µg/mL; `Cc1cc(C)nc(NC(=S)N2CCN(c3cccc([N+](=O)[O-])c3)CC2)c1`: 4.04 µg/mL (≈ 10.9 µM).
`CC(=O)c1c(C)c(C(=O)Nc2cccc([S+](=O)([O-])N(C)C)c2)n(C)c1C` came in with a kinetic solubility of 33.2 µg/mL (≈ 88 µM).
In turn, `COc1ccc(CN2CCNc3cc(Nc4ccccc4)ncc3C2)cc1O` returned a solubility (kinetic) of more than 83 µg/mL.
Compound `CSc1ccccc1-c1ccc(Nc2nc(-c3ccncc3)nc3ccccc23)cc1F` yielded a kinetic solubility of less than 1 µg/mL.
Compound `Cc1ccc(S(=O)(=O)Nc2ccccc2N2CCCCC2)cc1` returned a kinetic solubility of less than 1 µg/mL.
Turning to `CN1CCN(Cc2ccc(-c3ccc(C(C)(C)C#N)cc3)nc2)CC1`, the solubility (kinetic) was more than 49 µg/mL.
`c1ccc(CNc2cc3c(cn2)CN(Cc2cccnc2)CCN3)cc1` showed a solubility (kinetic) of 36.5 µg/mL (≈ 106 µM).
In the case of `Cc1cc(-c2nc(Nc3ccc(F)c(F)c3)c3ccccc3n2)ccn1` it was less than 1 µg/mL; in that of `O=C(NCCCO)c1ccc(-c2ncc3cnc(-c4cccc(F)c4)cn23)cc1`, more than 86 µg/mL; in that of `Cn1cc(C2=C(c3cn(CCCSC(=N)N)c4ccccc34)C(=O)NC2=O)c2ccccc21`, 19.2 µg/mL (≈ 41.9 µM).
Next, `COc1cccc(CNc2ccc(S(=O)(=O)Nc3nc4ccccc4s3)cc2)c1O`: 2.08 µg/mL (≈ 4.72 µM).
In the case of `O=C(Cc1ccc(Cl)c(Cl)c1)Nc1ccc(S(=O)(=O)Nc2cccc(O)c2)cc1` it was less than 1 µg/mL.
`O=c1[nH]nc(Sc2ncc([N+](=O)[O-])s2)n1-c1ccc2c(c1)OCCO2`: the kinetic solubility turned out to be 28.7 µg/mL (≈ 75.6 µM).
In the case of `COc1ccc(C2CC(=O)Nc3nc(N)sc32)cc1OC` (stereo not drawn) it was 30.5 µg/mL (≈ 99.8 µM); in that of `Cc1ccccc1S(=O)(=O)Nc1cnccc1C(=O)Nc1nc(-c2ccccc2)cs1`, 49.9 µg/mL (≈ 111 µM); in that of `COCCNC(=O)c1ccc(-c2ccc(N3CCCCC3)nc2)cc1`, 4.58 µg/mL (≈ 13.5 µM).
Take `O=S(=O)(Nc1ccc2ccccc2c1)c1ccc(NCc2ccc(Br)cc2O)cc1`: the kinetic solubility is less than 1 µg/mL.
For the compound `Cc1cccc2oc(NC3=NC(c4[nH]ncc4Cl)C4=C(CCCC4=O)N3)nc12` (stereo not drawn), the solubility (kinetic) was less than 1 µg/mL.
In the case of `Cc1ccc(C(=O)Nc2cccc(C(F)(F)F)c2)cc1Nc1nc(-c2cccnc2)nc2c1cnn2C` it was less than 1 µg/mL; in that of `Cc1ccc(C(=O)Nc2ccc3oc(-c4cccnc4)nc3c2)cc1[N+](=O)[O-]`, less than 1 µg/mL.
In the case of `CC(=O)Nc1cccc(-c2nc(-c3c(C)noc3C)cc3c2cc(-c2ccccc2)n3C)c1` it was less than 1 µg/mL; in that of `Cc1ccc(-c2nc(NCC(=O)Nc3cccc(C(=O)O)c3)c3ccccc3n2)cc1`, more than 61 µg/mL; in that of `NC(=O)C1CCN(c2nc(-c3cccc4sc5ccccc5c34)cs2)CC1`, less than 1 µg/mL.
In the case of `Oc1c(C(Nc2nccs2)c2ccc(C(F)(F)F)cc2)ccc2cccnc12` (stereo not drawn) it was less than 1 µg/mL.
Take `Cc1ccc(S(=O)(=O)Nc2ccccc2CNc2nc(-c3ccccc3)cs2)cc1`: the kinetic solubility is less than 1 µg/mL.
In the case of `COc1ccc(CNc2ccc(S(=O)(=O)Nc3nccs3)cc2)c(O)c1` it was 45.4 µg/mL (≈ 116 µM).
Next, `CCN(CC)C(=O)c1coc(COc2ccc3c(c2)C(c2cccc(F)c2)N(C(=O)C(C)C)CC3)n1` (stereo not drawn): less than 1 µg/mL; `COc1ccc(Cn2c(=O)[nH]c3cc(C(=O)NCCCN4CCCCC4)ccc3c2=O)cc1`: more than 67 µg/mL.
For `Cc1ccc(C)c(SC2=NS(=O)(=O)c3ccccc32)c1`, the solubility (kinetic) was less than 1 µg/mL.
Turning to `CCOc1ccc(CCNC(=O)c2ccnn2Cc2ccccn2)cc1OCC`, the kinetic solubility is more than 58 µg/mL.
Turning to `O=C(NCc1ccccc1)C1CCN(c2nc(-c3ccc(Br)cc3)cs2)CC1`, the kinetic solubility amounted to 2.48 µg/mL (≈ 5.43 µM).
In the case of `O=C(CSc1nc(-c2ccc(F)cc2)[nH]c1-c1ccc(F)cc1)Nc1ccc2c(c1)OCCO2` it was less than 1 µg/mL.
In the case of `CCCc1c(CC)c(=N)c2ccccc2n1C.I` it was more than 34 µg/mL; in that of `C[C@@]1(c2ncncc2F)NC(=O)c2cc(-c3cn[nH]c3)ccc21`, 17.9 µg/mL (≈ 58 µM); in that of `C[C@]1(CO)CN(c2cc(C(=O)Nc3ccc4c(c3)-c3c(c(C(N)=O)nn3-c3ccc(F)cc3)CC4)c(Cl)cn2)C[C@@]1(C)CO`, 18.5 µg/mL (≈ 29.8 µM).
As to `COc1cccc(-c2csc(N3CCC(C(N)=O)CC3)n2)c1`, the kinetic solubility was more than 47 µg/mL.
Regarding `O=C(Nc1ncc(Cc2ccc(C(F)(F)F)cc2)s1)c1ccc(-c2ccc([N+](=O)[O-])cc2)o1`, the solubility (kinetic) is less than 1 µg/mL.
Next, `Cc1ccc(CC(=O)Nc2nc(-c3ccc4c(c3)CCN4C(=O)c3ccccc3C)c(C)s2)cc1C`: less than 1 µg/mL; `COc1ccc2c3c([nH]c2c1)C1CC2C(CC(O)C(OC)C2CO)CN1CC3` (stereo not drawn): more than 57 µg/mL.

The term solubility (kinetic) denotes solubility judged after dilution from a stock solution rather than from solid.
